Earlier results in US11364228B2 (Ovid Therapeutics Inc., priority 2019, dated 2022).

Assays:
[1] = system: patients with a history of drug abuse; conditions: patients with a history of drug abuse who received gaboxadol
[2] = system: sleep onset and sleep maintenance; conditions: three-month efficacy study, treatment of insomnia
[3] = conventional pharmaceutical compositions such as tablets and capsules

In the case of `Oc1noc2c1CCNC2` [Gaboxadol, 4,5,6,7-tetrahydroisoxazolo [5,4-c]pyridine-3-ol], the half-life [3] is listed as 1.5 to 2 h, the “time to reach peak concentration” value [3] is listed as ≤ 30 min and the “half-life (t1/2)” value (plasma half-life post administration) is listed as 1.5 to 2 h. For the same compound, the psychiatric adverse events [1] was “steep increase in psychiatric adverse events” and the “effects in sleep onset and sleep maintenance” value [2] was “failed to show significant effects”.
